Test results published in ChEMBL document CHEMBL4196076, “An access to a library of novel triterpene derivatives with a promising pharmacological potential by Ugi and Passerini multicomponent reactions” (Eur J Med Chem, 2018).

test system: HT-29; experiment: Cytotoxicity against human HT-29 cells after 96 hrs by sulforhodamine-B assay; format: functional, cell-based; details: HT-29, 96 h

SMILES	EC50 [µM]
CCCCN(CC(=O)NCc1ccccc1)C(=O)[C@]12CCC(C)(C)C[C@H]1C1=CC[C@@H]3[C@@]4(C)CC[C@H](O)C(C)(C)[C@@H]4CC[C@@]3(C)[C@]1(C)CC2	15.6
CC(=O)O[C@@H]1C[C@]2(C)[C@H]3CC=C4[C@@H]5CC(C)(C)CC[C@]5(C(=O)O)CC[C@@]4(C)[C@]3(C)CC[C@H]2C(C)(C)[C@H]1OC(C)=O	25.5
CC1(C)CC[C@]2(C(=O)N(CC(=O)NC(C)(C)C)Cc3cccc(F)c3)CC[C@]3(C)C(=CC[C@@H]4[C@@]5(C)CC[C@H](O)C(C)(C)[C@@H]5CC[C@]43C)[C@@H]2C1	> 30
C=CCN(CC(=O)NCCCC)C(=O)[C@]12CCC(C)(C)C[C@H]1C1=CC[C@@H]3[C@@]4(C)CC[C@H](O)C(C)(C)[C@@H]4CC[C@@]3(C)[C@]1(C)CC2	> 30
CC(C)N(CC(=O)NCc1ccccc1)C(=O)[C@]12CCC(C)(C)C[C@H]1C1=CC[C@@H]3[C@@]4(C)CC[C@H](O)C(C)(C)[C@@H]4CC[C@@]3(C)[C@]1(C)CC2	> 30

test system: MCF7; experiment: Cytotoxicity against human MCF7 cells after 96 hrs by sulforhodamine-B assay; format: functional, cell-based; details: MCF7, 96 h

SMILES	EC50 [µM]
CC1(C)CC[C@]2(C(=O)O)CC[C@]3(C)C(=CC[C@@H]4[C@@]5(C)C[C@@H](O)[C@H](O)C(C)(C)[C@@H]5CC[C@]43C)[C@@H]2C1 [MASLINIC ACID]	37.2
CCCCN(CC(=O)NCc1ccccc1)C(=O)[C@]12CCC(C)(C)C[C@H]1C1=CC[C@@H]3[C@@]4(C)CC[C@H](O)C(C)(C)[C@@H]4CC[C@@]3(C)[C@]1(C)CC2	24.6
CC(=O)O[C@@H]1C[C@]2(C)[C@H]3CC=C4[C@@H]5CC(C)(C)CC[C@]5(C(=O)O)CC[C@@]4(C)[C@]3(C)CC[C@H]2C(C)(C)[C@H]1OC(C)=O	1.6
CC1(C)CC[C@]2(C(=O)N(CC(=O)NC(C)(C)C)Cc3cccc(F)c3)CC[C@]3(C)C(=CC[C@@H]4[C@@]5(C)CC[C@H](O)C(C)(C)[C@@H]5CC[C@]43C)[C@@H]2C1	> 30
C=CCN(CC(=O)NCCCC)C(=O)[C@]12CCC(C)(C)C[C@H]1C1=CC[C@@H]3[C@@]4(C)CC[C@H](O)C(C)(C)[C@@H]4CC[C@@]3(C)[C@]1(C)CC2	21.3
CC(C)N(CC(=O)NCc1ccccc1)C(=O)[C@]12CCC(C)(C)C[C@H]1C1=CC[C@@H]3[C@@]4(C)CC[C@H](O)C(C)(C)[C@@H]4CC[C@@]3(C)[C@]1(C)CC2	19.4

test system: 518A2; experiment: Cytotoxicity against human 518A2 cells after 96 hrs by sulforhodamine-B assay; format: functional, cell-based; details: 518A2, 96 h

SMILES	EC50 [µM]
CCCCN(CC(=O)NCc1ccccc1)C(=O)[C@]12CCC(C)(C)C[C@H]1C1=CC[C@@H]3[C@@]4(C)CC[C@H](O)C(C)(C)[C@@H]4CC[C@@]3(C)[C@]1(C)CC2	> 30
CC1(C)CC[C@]2(C(=O)N(CC(=O)NC(C)(C)C)Cc3cccc(F)c3)CC[C@]3(C)C(=CC[C@@H]4[C@@]5(C)CC[C@H](O)C(C)(C)[C@@H]5CC[C@]43C)[C@@H]2C1	> 30
C=CCN(CC(=O)NCCCC)C(=O)[C@]12CCC(C)(C)C[C@H]1C1=CC[C@@H]3[C@@]4(C)CC[C@H](O)C(C)(C)[C@@H]4CC[C@@]3(C)[C@]1(C)CC2	> 30
CC(C)N(CC(=O)NCc1ccccc1)C(=O)[C@]12CCC(C)(C)C[C@H]1C1=CC[C@@H]3[C@@]4(C)CC[C@H](O)C(C)(C)[C@@H]4CC[C@@]3(C)[C@]1(C)CC2	> 30

test system: A2780; experiment: Cytotoxicity against human A2780 cells after 96 hrs by sulforhodamine-B assay; format: functional, cell-based; details: A2780, 96 h

SMILES	EC50 [µM]
CCCCN(CC(=O)NCc1ccccc1)C(=O)[C@]12CCC(C)(C)C[C@H]1C1=CC[C@@H]3[C@@]4(C)CC[C@H](O)C(C)(C)[C@@H]4CC[C@@]3(C)[C@]1(C)CC2	> 30
CC(=O)O[C@@H]1C[C@]2(C)[C@H]3CC=C4[C@@H]5CC(C)(C)CC[C@]5(C(=O)O)CC[C@@]4(C)[C@]3(C)CC[C@H]2C(C)(C)[C@H]1OC(C)=O	10.5
CC1(C)CC[C@]2(C(=O)N(CC(=O)NC(C)(C)C)Cc3cccc(F)c3)CC[C@]3(C)C(=CC[C@@H]4[C@@]5(C)CC[C@H](O)C(C)(C)[C@@H]5CC[C@]43C)[C@@H]2C1	> 30
C=CCN(CC(=O)NCCCC)C(=O)[C@]12CCC(C)(C)C[C@H]1C1=CC[C@@H]3[C@@]4(C)CC[C@H](O)C(C)(C)[C@@H]4CC[C@@]3(C)[C@]1(C)CC2	19.3
CC(C)N(CC(=O)NCc1ccccc1)C(=O)[C@]12CCC(C)(C)C[C@H]1C1=CC[C@@H]3[C@@]4(C)CC[C@H](O)C(C)(C)[C@@H]4CC[C@@]3(C)[C@]1(C)CC2	15.4

test system: A549; experiment: Cytotoxicity against human A549 cells after 96 hrs by sulforhodamine-B assay; format: functional, cell-based; details: A549, 96 h

SMILES	EC50 [µM]
CC(=O)O[C@@H]1C[C@]2(C)[C@H]3CC=C4[C@@H]5CC(C)(C)CC[C@]5(C(=O)O)CC[C@@]4(C)[C@]3(C)CC[C@H]2C(C)(C)[C@H]1OC(C)=O	18.9

test system: FaDu; experiment: Cytotoxicity against human FADU cells after 96 hrs by sulforhodamine-B assay; format: functional, cell-based; details: not given

SMILES	EC50 [µM]
CC1(C)CC[C@]2(C(=O)O)CC[C@]3(C)C(=CC[C@@H]4[C@@]5(C)C[C@@H](O)[C@H](O)C(C)(C)[C@@H]5CC[C@]43C)[C@@H]2C1 [MASLINIC ACID]	17
CCCCN(CC(=O)NCc1ccccc1)C(=O)[C@]12CCC(C)(C)C[C@H]1C1=CC[C@@H]3[C@@]4(C)CC[C@H](O)C(C)(C)[C@@H]4CC[C@@]3(C)[C@]1(C)CC2	> 30
CC(=O)O[C@@H]1C[C@]2(C)[C@H]3CC=C4[C@@H]5CC(C)(C)CC[C@]5(C(=O)O)CC[C@@]4(C)[C@]3(C)CC[C@H]2C(C)(C)[C@H]1OC(C)=O	21.3
CC1(C)CC[C@]2(C(=O)N(CC(=O)NC(C)(C)C)Cc3cccc(F)c3)CC[C@]3(C)C(=CC[C@@H]4[C@@]5(C)CC[C@H](O)C(C)(C)[C@@H]5CC[C@]43C)[C@@H]2C1	> 30
C=CCN(CC(=O)NCCCC)C(=O)[C@]12CCC(C)(C)C[C@H]1C1=CC[C@@H]3[C@@]4(C)CC[C@H](O)C(C)(C)[C@@H]4CC[C@@]3(C)[C@]1(C)CC2	> 30
CC(C)N(CC(=O)NCc1ccccc1)C(=O)[C@]12CCC(C)(C)C[C@H]1C1=CC[C@@H]3[C@@]4(C)CC[C@H](O)C(C)(C)[C@@H]4CC[C@@]3(C)[C@]1(C)CC2	> 30

test system: NIH3T3; experiment: Cytotoxicity against mouse NIH/3T3 cells after 96 hrs by sulforhodamine-B assay; format: cell-based; details: NIH3T3, 96 h

SMILES	EC50 [µM]
CCCCN(CC(=O)NCc1ccccc1)C(=O)[C@]12CCC(C)(C)C[C@H]1C1=CC[C@@H]3[C@@]4(C)CC[C@H](O)C(C)(C)[C@@H]4CC[C@@]3(C)[C@]1(C)CC2	> 30
CC(=O)O[C@@H]1C[C@]2(C)[C@H]3CC=C4[C@@H]5CC(C)(C)CC[C@]5(C(=O)O)CC[C@@]4(C)[C@]3(C)CC[C@H]2C(C)(C)[C@H]1OC(C)=O	12.2
CC1(C)CC[C@]2(C(=O)N(CC(=O)NC(C)(C)C)Cc3cccc(F)c3)CC[C@]3(C)C(=CC[C@@H]4[C@@]5(C)CC[C@H](O)C(C)(C)[C@@H]5CC[C@]43C)[C@@H]2C1	> 30
C=CCN(CC(=O)NCCCC)C(=O)[C@]12CCC(C)(C)C[C@H]1C1=CC[C@@H]3[C@@]4(C)CC[C@H](O)C(C)(C)[C@@H]4CC[C@@]3(C)[C@]1(C)CC2	> 30
CC(C)N(CC(=O)NCc1ccccc1)C(=O)[C@]12CCC(C)(C)C[C@H]1C1=CC[C@@H]3[C@@]4(C)CC[C@H](O)C(C)(C)[C@@H]4CC[C@@]3(C)[C@]1(C)CC2	> 30
